Laboratory results reported in US20120015961A1, “ISOTHIOUREA DERIVATIVES OR ISOUREA DERIVATIVES HAVING BACE1 INHIBITORY ACTIVITY” (SHIONOGI & CO., LTD., priority 2009, published 2012).

How the values were obtained:
[1] = biological target: T1, CYP2C9 (Homo sapiens, UniProt P11712); assay: CYP inhibition test (CYP2C9); assay type: in vitro ADME; details: pooled human hepatic microsome, tolbutamide methyl-hydroxylation
T1 construct: Enzyme, pooled human hepatic microsome 0.2 mg protein/mL; from tissue; host or cells: pooled human hepatic microsomes
T1 sequence (P11712 whole entry): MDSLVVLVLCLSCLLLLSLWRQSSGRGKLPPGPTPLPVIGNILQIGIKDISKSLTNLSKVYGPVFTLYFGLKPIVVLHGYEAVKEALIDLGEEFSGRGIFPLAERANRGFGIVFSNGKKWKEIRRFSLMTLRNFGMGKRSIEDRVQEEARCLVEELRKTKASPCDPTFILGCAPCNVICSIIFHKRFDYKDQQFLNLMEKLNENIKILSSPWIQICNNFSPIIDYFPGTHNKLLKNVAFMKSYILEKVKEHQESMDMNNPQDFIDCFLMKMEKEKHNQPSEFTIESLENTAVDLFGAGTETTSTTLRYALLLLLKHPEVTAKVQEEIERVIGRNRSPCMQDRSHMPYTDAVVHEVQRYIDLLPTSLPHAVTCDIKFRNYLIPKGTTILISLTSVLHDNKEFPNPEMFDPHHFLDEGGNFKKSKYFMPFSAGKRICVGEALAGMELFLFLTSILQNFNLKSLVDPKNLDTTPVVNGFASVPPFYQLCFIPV
Method: (§1) Using commercially available pooled human hepatic microsome, and employing, as markers, 7-ethoxyresorufin O-deethylation (CYP1A2), tolbutamide methyl-hydroxylation (CYP2C9), mephenyloin 4′-hydroxylation (CYP2C19), dextromethorphan O-demethylation (CYP2D6), and terfenedine hydroxylation as typical substrate metabolism reactions of human main five CYP enzyme forms (CYP1A2, 2C9, 2C19, 2D6, 3A4), an inhibitory degree of each metabolite production amount by a test compound was assessed.
(§2) The reaction conditions were as follows: […]
(§3) Each five kinds of substrates, human hepatic microsome, or a test drug in 50 mM Hepes buffer as a reaction solution was added to a 96-well plate at the composition as described above, NADPH, a cofactor, was added to initiate metabolism reactions as markers and, after the incubation at 37° C. for 15 minutes, a methanol/acetonitrile=1/1 (v/v) solution was added to stop the reaction. After the centrifugation at 3000 rpm for 15 minutes, resorufin (CYP1A2 metabolite) in the supernatant was quantified by a fluorescent multilabel counter and tributamide hydroxide (CYP2CP metabolite), mephenyloin 4′ hydroxide (CYP2C19 metabolite), […], and terfenadine alcohol (CYP3A4 metabolite) were quantified by LC/MS/MS. […]

[2] = biological target: CYP3A4 (Homo sapiens, UniProt P08684); assay: CYP inhibition test (CYP3A4); assay type: in vitro ADME; design: Enzyme, pooled human hepatic microsome 0.2 mg protein/mL; from tissue; host or cells: pooled human hepatic microsomes; details: pooled human hepatic microsome, terfenedine hydroxylation
Chain of CYP3A4 (P08684 whole entry): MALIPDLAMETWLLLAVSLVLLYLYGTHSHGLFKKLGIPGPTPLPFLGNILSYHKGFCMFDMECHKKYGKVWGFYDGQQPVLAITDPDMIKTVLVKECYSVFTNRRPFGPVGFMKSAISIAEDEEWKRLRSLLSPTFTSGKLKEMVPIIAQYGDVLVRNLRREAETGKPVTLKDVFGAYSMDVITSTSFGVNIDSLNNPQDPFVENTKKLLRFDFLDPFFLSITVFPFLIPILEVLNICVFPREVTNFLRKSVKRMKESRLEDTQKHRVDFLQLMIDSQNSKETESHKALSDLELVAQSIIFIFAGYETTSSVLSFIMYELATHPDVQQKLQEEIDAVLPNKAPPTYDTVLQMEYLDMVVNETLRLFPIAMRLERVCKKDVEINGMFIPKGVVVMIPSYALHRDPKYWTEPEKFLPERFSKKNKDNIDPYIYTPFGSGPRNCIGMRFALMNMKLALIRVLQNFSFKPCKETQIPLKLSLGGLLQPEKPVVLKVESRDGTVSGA
Method: as §1, §2, §3

[3] = biological target: T2, CYP2D6 (Homo sapiens, UniProt P10635); assay: CYP inhibition test (CYP2D6); assay type: in vitro ADME; details: pooled human hepatic microsome, dextromethorphan O-demethylation
T2 construct: Enzyme, pooled human hepatic microsome 0.2 mg protein/mL; from tissue; host or cells: pooled human hepatic microsomes
T2 sequence (P10635 whole entry): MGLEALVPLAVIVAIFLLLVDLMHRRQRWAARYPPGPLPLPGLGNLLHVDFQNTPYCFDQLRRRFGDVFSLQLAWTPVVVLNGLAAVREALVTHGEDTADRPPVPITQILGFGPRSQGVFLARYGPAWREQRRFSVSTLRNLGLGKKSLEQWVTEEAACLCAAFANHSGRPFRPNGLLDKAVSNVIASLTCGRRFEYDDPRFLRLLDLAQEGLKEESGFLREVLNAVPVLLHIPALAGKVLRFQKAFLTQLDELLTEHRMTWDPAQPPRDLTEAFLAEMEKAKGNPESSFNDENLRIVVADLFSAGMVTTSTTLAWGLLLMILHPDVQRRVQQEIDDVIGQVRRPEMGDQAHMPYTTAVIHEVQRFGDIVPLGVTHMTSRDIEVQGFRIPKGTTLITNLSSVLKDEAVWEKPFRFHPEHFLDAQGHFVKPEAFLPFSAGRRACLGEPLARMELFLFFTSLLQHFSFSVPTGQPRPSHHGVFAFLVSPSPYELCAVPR
Method: as §1, §2, §3

[4] = biological target: T3, CYP2C19 (Homo sapiens, UniProt P33261); assay: CYP inhibition test (CYP2C19); assay type: in vitro ADME; details: pooled human hepatic microsome, mephenyloin 4′-hydroxylation
T3 construct: Enzyme, pooled human hepatic microsome 0.2 mg protein/mL; from tissue; host or cells: pooled human hepatic microsomes
T3 sequence (P33261 whole entry): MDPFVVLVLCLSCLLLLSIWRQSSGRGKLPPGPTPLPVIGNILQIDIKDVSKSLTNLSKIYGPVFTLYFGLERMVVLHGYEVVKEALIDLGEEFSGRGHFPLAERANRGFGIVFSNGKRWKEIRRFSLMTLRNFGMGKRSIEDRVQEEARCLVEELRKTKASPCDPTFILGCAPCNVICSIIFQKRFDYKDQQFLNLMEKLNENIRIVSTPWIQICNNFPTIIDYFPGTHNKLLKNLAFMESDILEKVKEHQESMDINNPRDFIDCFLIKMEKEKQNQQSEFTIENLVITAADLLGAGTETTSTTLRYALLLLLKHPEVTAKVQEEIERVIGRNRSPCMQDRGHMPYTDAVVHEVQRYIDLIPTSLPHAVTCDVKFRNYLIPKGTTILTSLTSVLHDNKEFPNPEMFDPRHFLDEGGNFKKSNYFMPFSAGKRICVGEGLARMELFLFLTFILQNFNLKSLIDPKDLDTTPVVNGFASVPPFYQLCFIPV
Method: as §1, §2, §3

[5] = biological target: T4, CYP1A2 (Homo sapiens, UniProt P05177); assay: CYP inhibition test (CYP1A2); assay type: in vitro ADME; details: pooled human hepatic microsome, 7-ethoxyresorufin O-deethylation
T4 construct: Enzyme, pooled human hepatic microsome 0.2 mg protein/mL; from tissue; host or cells: pooled human hepatic microsomes
T4 sequence (P05177 1-516): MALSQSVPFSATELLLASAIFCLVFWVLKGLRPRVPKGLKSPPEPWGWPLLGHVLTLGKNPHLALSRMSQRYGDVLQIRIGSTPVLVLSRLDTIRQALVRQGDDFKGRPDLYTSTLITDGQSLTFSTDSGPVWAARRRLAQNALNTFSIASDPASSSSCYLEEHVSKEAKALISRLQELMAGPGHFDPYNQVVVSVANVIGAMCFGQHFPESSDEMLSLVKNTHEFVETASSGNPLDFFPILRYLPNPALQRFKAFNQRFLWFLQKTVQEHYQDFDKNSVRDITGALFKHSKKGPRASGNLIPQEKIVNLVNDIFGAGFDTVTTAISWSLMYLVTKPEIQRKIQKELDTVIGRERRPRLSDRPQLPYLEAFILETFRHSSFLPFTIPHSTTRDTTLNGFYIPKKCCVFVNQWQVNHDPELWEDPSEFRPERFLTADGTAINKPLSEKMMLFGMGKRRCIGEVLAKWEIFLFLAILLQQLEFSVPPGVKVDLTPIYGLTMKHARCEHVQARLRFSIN
Method: as §1, §2, §3

[6] = test system: Neuroblastoma SH-SY5Y cells (SH/APPwt) with human wild-type β-APP excessively expressed; assay: Measurement of β-amyloid (Aβ) production inhibitory effect in cell; assay type: cell-based; details: Homo sapiens, SH-SY5Y, 24 h, amount needed to inhibit Aβ production by 50%, 24 hours incubation, Amyloid β1-40 HTRF
Method: Neuroblastoma SH-SY5Y cells (SH/APPwt) with human wild-type β-APP excessively expressed therein were prepared at 8×10^5 cells/mL, and 150 μl portions thereof were inoculated into each well of a 96-well culture plate (Falcon). The cells were cultured for 2 hours at 37° C. in a 5% gaseous carbon dioxide incubator. Then, a solution which had been preliminarily prepared by adding and suspending the test compound (DMSO (dimethyl sulfoxide) solution) so as to be 2 μl/50 μl medium was added to the cell sap. Namely, the final DMSO concentration was 1%, and the amount of the cell culture was 200 μl. After the incubation was performed for 24 hours from the addition of the test compound, 100 μl of the culture supernatant was collected from each fraction. The amount of the Aβ in each fraction was measured.
The […] was measured as follows. 10 μl of a homogeneous time resolved fluorescence (HTRF) measurement reagent (Amyloid β1-40 peptide; IBA Molecular Holding, S.A.) and 10 μl of the culture supernatant were put into a 384-well half area microplate (black microplate, Costar) and mixed with each other, and then left standing overnight at 4° C. while the light was shielded. Then, the fluorescence intensity (excitation wavelength: 337 nm, measurement wavelength: 620 nm and 665 nm) was measured with a Wallac 1420 multilabel counter (Perkin Elmer life sciences). The Aβ amount was determined from the count rate at each measurement wavelength (10000×Count 665/Count 620), and the amount needed to inhibit Aβ production by 50% (IC50) was calculated from at least six different dosages.

[7] = BA test; assay type: in vivo; details: rat, plasma; SD rats, from AUCs of oral and intravenous administration
Method: Materials and methods for studies on oral absorption
(2) Breeding conditions: rats were allowed to freely take solid feed and sterilized tap water
(3) Dose and grouping: orally or intravenously administered at a predetermined dose; grouping was as follows (Dose depends on the compound)
Oral administration: 1 to 30 mg/kg (n=2 to 3)
Intravenous administration: 0.5 to 10 mg/kg (n=2 to 3)
(4) Preparation of dosing solution: for oral administration, in a solution or a suspension state; for intravenous administration, in a solubilized state
(5) Administration method: in oral administration, forcedly administer into ventriculus with oral probe; in intravenous administration, administer from caudal vein with a needle-equipped syringe
(6) Evaluation items: blood was collected over time, and the plasma concentration of drug was measured by LC/MS/MS
(7) Statistical analysis: regarding the transition of the plasma concentration, the area under the plasma concentration-time curve (AUC) was calculated by non-linear least squares program WinNonlin (Registered trademark), and the bioavailability (BA) was calculated from the AUCs of the oral administration group and intravenous administration group

[8] = biological target: T5, Recombinant human BACE1 (Homo sapiens, UniProt P56817); assay: Assay of BACE1 inhibiting activity; assay type: biochemical; details: 50% inhibitory concentration against enzymatic activity, pH 5.0, 30° C., 3 hours
T5 construct: purchased R&D Systems
T5 sequence (P56817 46-501): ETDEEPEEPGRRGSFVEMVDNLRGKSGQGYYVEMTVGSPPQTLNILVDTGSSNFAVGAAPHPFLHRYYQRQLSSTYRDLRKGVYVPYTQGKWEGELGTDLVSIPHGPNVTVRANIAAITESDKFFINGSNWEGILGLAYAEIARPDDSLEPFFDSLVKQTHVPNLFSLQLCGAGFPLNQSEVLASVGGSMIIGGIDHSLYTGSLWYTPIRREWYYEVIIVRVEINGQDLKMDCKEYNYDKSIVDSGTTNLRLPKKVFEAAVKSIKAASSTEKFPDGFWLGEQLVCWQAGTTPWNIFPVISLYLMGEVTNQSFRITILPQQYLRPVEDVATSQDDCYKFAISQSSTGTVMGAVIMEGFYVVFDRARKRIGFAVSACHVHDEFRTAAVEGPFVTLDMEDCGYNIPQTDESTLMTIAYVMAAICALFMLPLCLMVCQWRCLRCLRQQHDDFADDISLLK
Method: 48.5 μL of substrate peptide solution (Biotin-XSEVNLDAEFRHDSGC-Eu: Xεε-amino-n-capronic acid, Eu=Europium cryptate) was added to each well of 96-hole half-area plate (a black plate: Costar Corporation), and after addition of 0.5 μl of the test compound (dissolved in […]) and 1 μl of Recombinant human BACE1 (R&D Systems), the reaction mixture was incubated at 30° C. for 3 hours. The substrate peptide was synthesized by reacting Cryptate TBPCOOH mono SMP (CIS bio international) with Biotin-XSEVNLDAEFRHDSGC (Peptide Institute, Inc.). The final concentrations of the substrate peptide and Recombinant human BACE1 were adjusted to 18 nM and 7.4 nM respectively, and the reaction was performed in sodium acetate buffer (50 mM sodium acetate, pH 5.0, 0.008% Triton X-100). After the completion of reaction, 50 μl of 8.0 μg/ml Streptavidin-XL665 (CIS bio international) dissolved in phosphate buffer (150 mM K2HPO4—KH2PO4, pH 7.0, 0.008% Triton X-100, 0.8 M KF) was added to each well and left stand at 30° C. for an hour. Then, fluorescence intensity was measured (excitation wavelength: 320 nm, measuring wavelength: 620 nm and 665 nm) using Wallac 1420 multilabel counter (Perkin Elmer life sciences). Enzymatic activity was determined from counting ratio of each wavelength (10,000×Count 665/Count 620) and 50% inhibitory concentration against the enzymatic activity was calculated.

[9] = Metabolic stability test; assay type: in vitro ADME; details: human liver microsomes 0.5 mg protein/mL, 1 mmol/L NADPH, 30 minutes at 37° C.
Method: The target compound was reacted with commercially available pooled human liver microsomes for a predetermined time period. The residual rate was calculated by comparing the reacted sample and unreacted sample, and thus the degree of metabolism in liver was evaluated.
In 0.2 mL of a buffer (50 mmol/L tris-HCl pH 7.4, 150 mmol/L potassium chloride, 10 mmol/L magnesium chloride) containing human liver microsomes 0.5 mg protein/mL, reaction was carried out in the presence of 1 mmol/L NADPH for 0 minute or 30 minutes at 37° C. (oxidative reaction). After the reaction, 50 μL of the reaction solution was added to and mixed with 100 μL of a solution of methanol/acetonitrile=1/1 (v/v), and the mixture was centrifuged for 15 minutes at 3000 rpm. The test compound in the centrifuged supernatant was quantified by LC/MS/MS, and the residual amount of the test compound after the reaction was calculated based on the compound amount at O-minute reaction set as 100%.

[10] = Solubility test; assay type: physicochemical; details: JP-I medium with 2% DMSO, pH 1.2, simulated gastric fluid, kinetic from dmso stock, turbidity after 4 hours
Method: A 2-fold dilution series (12 points) of a 10 mM solution of a test compound in DMSO was added to a medium (JP-I, JP-II) (2%), and solubility was assessed by 3 stages (High; >40 μM, Medium; 3-40 μM, Low; <3 μM) from a turbidity after 4 hours (crystallization information).

Structure (SMILES)	IC50 [1] [µM]	IC50 [2] [µM]	IC50 [3] [µM]	IC50 [4] [µM]	IC50 [5] [µM]	IC50 [6] [µM]	bioavailability [7] [%]	IC50 [8] [µM]	residual amount of the test compound after the reaction [9] [%]	solubility at 4 h [10] [µM]
N#Cc1ccc(C(=O)Nc2cccc(C/N=C(\N)OCCCO)c2)nc1 [Compound 36]	> 20	> 20	> 20	> 20	> 20	≤ 1	–	–	–	–
CO/C(N)=N\C1(c2cccc(NC(=O)c3cnc(C)cn3)c2)CC1 [Compound 41]	> 20	> 20	> 20	> 20	> 20	≤ 1	–	–	–	–
CO/C(N)=N/C(c1ccccc1)c1cccc(NC(=O)c2ccc(C#N)cn2)c1 (centres unmarked) [Compound 48]	–	–	–	–	–	≤ 1	87.2	≤ 1	–	–
CO/C(N)=N/C(c1ccc(F)cc1)c1cccc(NC(=O)c2ccc(C#N)cn2)c1 (centres unmarked) [Compound 50]	–	–	–	–	–	≤ 1	–	0.188	100	–
CO/C(N)=N\c1cccc2ncc(NC(=O)c3ccc(C#N)cn3)cc12 [Compound 76]	–	–	–	–	–	–	–	–	98.9	> 40
CO/C(N)=N\c1c(C)ccc2ccc(NC(=O)c3ccc(C#N)cn3)cc12 [Compound 77]	–	–	–	–	–	≤ 1	75	≤ 1	–	–
